The results in this text go back to patent publication US20200163938A1, “PHARMACEUTICAL COMPOSITION COMPRISING IRON CHELATOR EXHIBITING ANTITUMOR ACTIVITY, ANTIBACTERIAL ACTIVITY AND/OR ANTIVIRUS ACTIVITY, AND HAVING REDUCED SIDE EFFECTS” (priority 2017, published 2020).

In data set [1] the test system is C. albicans (ATCC10231; Candida albicans). The data set is described as follows: Minimum growth inhibition concentration (MIC). In kind it is cell-based. Here is the method: (§1) The dilution series of the chelating agent of each test group was prepared according to a standard method, microbes were inoculated, and then 24 hours later, the microbial growth was confirmed, thereby determining the minimum growth inhibition concentration of the chelating agent of each test group. Microbes used herein were S. aureus (ATCC6538; Staphylococcus aureus), P. aeruginosa (ATCC9027; Pseudomonas aeruginosa) and C. albicans (ATCC10231; Candida albicans). Drugs used herein were oxacillin, vancomycin and deferasirox as positive controls.

In data set [2] the test system is P. aeruginosa (ATCC9027; Pseudomonas aeruginosa). The data set is described as follows: Minimum growth inhibition concentration (MIC). Conditions: 24 hours; for MIC: Pseudomonas aeruginosa, ATCC9027. In kind it is cell-based. Here is the method: as §1
The test system of data set [3] is S. aureus (ATCC6538; Staphylococcus aureus). Nature of the data set: Minimum growth inhibition concentration (MIC). In kind it is cell-based. Conditions: for MIC S. aureus / MIC: 24 hours; for MIC: Staphylococcus aureus, ATCC6538. Here is the method: as §1
In the next data set the test system is S. mutans (ATCC25175). The data set is described as follows: Antibacterial activity, turbidity and ATP assay. In kind it is cell-based, Streptococcus mutans. Conditions: aerobic culture 37° C., 18 hours; FIGS. 6A, 6B. Here is the method: First, the antibacterial activity of a dental caries-causing bacterium, S. mutans (ATCC25175) was examined. With the use of a liquid medium prepared by adding a yeast extract and the chelating agent of each test group to TSB medium, aerobic culture was performed at 37° C. for 18 hours, and then turbidity was found from optical density (OD570 or 595 nm). Cell activity was measured using an ATP assay kit (Kikkoman Corporation). Results were as depicted in FIGS. 6A and 6B.

For data set [4], the system named is A. actinomycetemcomitans AaY4 (ATCC). The data set is described as follows: Antibacterial activity, turbidity and ATP assay. In kind it is cell-based, Aggregatibacter actinomycetemcomitans. As to conditions: anaerobic culture 37° C., 18 hours; FIGS. 7A, 7B. Here is the method:
A bacterial strain of one of periodontopathic bacteria, A. actinomycetemcomitans, used herein was AaY4 (ATCC). With the use of a liquid medium prepared by adding a yeast extract, sodium bicarbonate and the chelating agent of each test group to TSB medium, anaerobic culture (Anaeropack-anaerobic) was performed at 37° C. for 18 hours. Turbidity was measured using absorbance (OD570 or 595 nm), and cell activity was measured using an ATP assay kit. Results were as depicted in FIGS. 7A and 7B.

Data set [5] relates to Human lung cancer cell line (A549) subcutaneous tumors. Nature of the data set: In vivo antitumor effects, A549 subcutaneous tumors in nude mice. Here is the method:
Antitumor effects were confirmed using animal models. Specifically, nude mice (BALB/c nu/nu, 6 weeks old: Clea Japan Inc.) were provided. Human lung cancer cell line (A549) was adjusted at 3×10^6/mouse, and then mixed with Matrigel (BD Biosciences) at 1:1. The thus obtained mixture was administered to mice, thereby forming subcutaneous tumors. At 1 week after the formation of subcutaneous tumors, mice were divided into a negative control group (saline: 4 mice), a test group 9 administration group (test group 9: 3 mice), and a positive control group (deferasirox: 3 mice), and then subjected to oral administration. The dosage of deferasirox was 20 mg/kg/day (5 times/week administration) corresponding to that specified for humans in the package insert. Test group 9 was administered in the same dosage as that of deferasirox. Results were as depicted in FIGS. 4A and 4B.

Data set [6] is classed as in vivo. Also on record: NEFA: unit not given here. Conditions: for Body weight: rats. Here is the method: To a negative control group (saline administration; n=6), the same amount of saline was administered. On day 14 after administration, determining life or death, measurement of body weight, physical items (respiration, body temperature, behavior, etc.) were observed. Moreover, blood samples were taken from each group, and the right kidneys and the livers were removed. Results were as depicted in FIG. 5A to 5C and Tables 4 to 9.

Where [7] appears, read: rat blood, oral 200 mg/kg, day 14.
[8] abbreviates: rat blood, oral 1000 mg/kg, day 14.
Setting [9] is: rat blood, oral 1000 mg/kg, day 14, 1000 mg/kg.

One may read the MIC as the least concentration at which growth counts as inhibited.

Molecules are shown by their SMILES. ≈ marks a conversion by molar mass, not a printed value. Where “and” joins values, the source holds several entries; their conditions need not be identical. Identical values can stand only once. Like-named read-outs stand apart in the source and are kept apart here.

As for `Cl.OCC1OC(O)C(NCc2ccc(O)c(O)c2)C(O)C1O` (centres unmarked) [Test group 5], the “MIC C. albicans” value in data set [1] (24 hours) came out at 800 µg/mL. Also, the “antimicrobial effects on C. albicans (in words)” value in data set [1] (from Table 10) is on record as “exhibited antimicrobial effects”. For the same compound, the “MIC P. aeruginosa” value in data set [2] is greater than 800 µg/mL. In data set [3], the “MIC S. aureus” value is 800 µg/mL. The “antimicrobial effects on S. mutans (turbidity, ATP activity)” value in the data set on S. mutans (ATCC25175) is “strong antimicrobial effects”. In addition, the “antimicrobial effects on A. actinomycetemcomitans (turbidity, ATP activity)” value in data set [4] is reported as “strong antimicrobial effects”.
With `Cl.O=C(O)[C@H](Cc1c[nH]cn1)NCc1ccc(O)c(O)c1` [Test group 8], the “MIC C. albicans” value in data set [1] (24 hours) is greater than 800 µg/mL. Further, in data set [2], the “MIC P. aeruginosa” value was greater than 800 µg/mL. Moreover, in data set [3], the “MIC S. aureus” value was found to be 800 µg/mL. For the same compound, the “antimicrobial effects on S. aureus (in words)” value in data set [3] (from Table 10) is reported as “antimicrobial effects”.
`Cc1onc(-c2ccccc2)c1C(=O)N[C@@H]1C(=O)N2[C@@H]1SC(C)(C)[C@@H]2C(=O)O` [Oxacillin, oxacillin, reference compound]: the minimum inhibitory concentration (MIC) in data set [2] amounted to 1020 µg/mL (≈ 2550 µM); in data set [3], 0.25 µg/mL (≈ 0.623 µM).
Turning to `Cl.O=C(O)c1cc(CN[C@@H](Cc2c[nH]cn2)C(=O)O)ccc1O` [Test group 9], the “in vivo antitumor effects” value in data set [5] (A549 subcutaneous tumors, nude mice, oral 20 mg/kg/day (5 times/week), FIG. 4A) is on record as “antitumor effects were exhibited to an extent almost equivalent to that in the positive control group”. In addition, the body weight change entry in data set [5] (mouse, in vivo, po, 20 mg/kg/day) is “no significant change was observed in body weight”. In addition, in data set [5] (nude mice, oral 20 mg/kg/day (5 times/week)), the “death during the experiment” value is given as “no mice died during the experiment”. In data set [6] (setting [7]), this compound showed an ALP of 695 IU/L, an ALT of 24 IU/L, an AST of 54 IU/L and a BUN of 22.8 mg/dL. Moreover, in data set [6] (setting [7]), the CRE is on record as 0.37 mg/dL, the Ca was 11.1 mg/dL, the GLU is recorded as 214 mg/dL and the K was 4.7 mEQ/L. In addition, in data set [6] (setting [7]), the LD amounted to 49 IU/L, the NEFA was 59, the Na is 146 mEQ/L and the T-Bil is listed as 0.05 mg/dL. In data set [6] (setting [7]), this compound displayed a TP of 5.5 g/dL. Also, in data set [6] (setting [8]), the CRE came to 0.36 mg/dL and the T-Bil was found to be 0.06 mg/dL. Also, in data set [6] (setting [9]), the ALP is 563 IU/L and 502 IU/L; the ALT was 24 IU/L and 25 IU/L; the AST is 59 IU/L and 58 IU/L; the BUN was 22.5 mg/dL and 24.4 mg/dL. Further, in data set [6] (setting [9]), the Ca was 10.0 mg/dL and 11.2 mg/dL; the GLU was 195 mg/dL and 301 mg/dL; the K is 3.6 mEQ/L and 4.8 mEQ/L; the LD was 78 IU/L and 70 IU/L. Also, in data set [6] (setting [9]), the Na was 143 mEQ/L and 144 mEQ/L; the TP was 5.4 g/dL and 5.9 g/dL. In data set [6] (oral 200 mg/kg), this compound registered a Body weight of 190.97 g. Also, in data set [6] (oral 1000 mg/kg, 1000 mg/kg), the Body weight was 177.11 g and 183.15 g. Besides, in data set [1] (24 hours), the “MIC C. albicans” value was greater than 500 µg/mL. The “MIC P. aeruginosa” value in data set [2] is greater than 500 µg/mL. In addition, the “MIC S. aureus” value in data set [3] was greater than 500 µg/mL.
Turning to `Cl.O=C(O)c1cc(CNC2C(O)OC(CO)C(O)C2O)ccc1O` (centres unmarked) [Test group 7], in data set [1] (24 hours), the “MIC C. albicans” value was greater than 800 µg/mL. The “MIC P. aeruginosa” value in data set [2] was greater than 800 µg/mL. In data set [3], the “MIC S. aureus” value was greater than 800 µg/mL.
As for `CN[C@H](CC(C)C)C(=O)N[C@H]1C(=O)N[C@@H](CC(N)=O)C(=O)N[C@H]2C(=O)N[C@H]3C(=O)N[C@H](C(=O)N[C@H](C(=O)O)c4cc(O)cc(O)c4-c4cc3ccc4O)[C@H](O)c3ccc(c(Cl)c3)Oc3cc2cc(c3O[C@@H]2O[C@H](CO)[C@@H](O)[C@H](O)[C@H]2O[C@H]2C[C@](C)(N)[C@H](O)[C@H](C)O2)Oc2ccc(cc2Cl)[C@H]1O` [Vancomycin, vancomycin, reference compound], the results for the MIC in data set [2] and in data set [3] were greater than 50 µg/mL and 1.6 µg/mL (≈ 1.1 µM), respectively.
Turning to `O=C(O)c1ccc(-n2nc(-c3ccccc3O)nc2-c2ccccc2O)cc1` [Deferasirox, deferasirox, reference compound], the minimal inhibitory concentration (MIC) is greater than 250 µg/mL in data set [1] (Candida albicans, ATCC10231, 24 hours); greater than 250 µg/mL in data set [2]; 250 µg/mL (≈ 670 µM) in data set [3].
